The source of these data is patent US20210369853A1, “TARGETED PROTEASE DEGRADATION PLATFORM” (EUBULUS BIOTHERAPEUTICS INC., priority 2018, published 2021).

Bounds are passed on as bounds.

A word on the EC50: it is the concentration at which the effect is half-maximal. A high value points to a less potent agent.

One experiment has as its system Human Monocytic Leukemia MV4-11. Nature of the experiment: Cell proliferation experiment (Alarm blue, 72 h, EC50). The experiment is classed as cell-based. As to conditions: Homo sapiens, MV4-11, MV4;11 cells. The method, then:
(2.1) Cell Proliferation Experiment:
Reagents: RPMI-1640 medium, McCoy's 5A medium, IMDM medium, MEM medium, L-15 medium, fetal bovine serum, Penicillin-Streptomycin double antibody, trypsin, etc., 2-mercaptoethanol, NEAA, pyruvate, etc.
The cells were cultured in conventional ways, and the cells should be passed at least for at least 2 generations before plating. Cells at the logarithmic growth phase are collected, prepared into single cell suspensions and counted. The concentration of cells was adjusted to the desired concentration, and cells were inoculated into a 96-well cell culture plate at 100 μl per well. 100 μL of complete medium of the test compound were added to each well, set up 2 duplicates for each concentration, and diluted with a 5-fold gradient, and continue to culture for 72 h. All cells were subjected to EC50 test for corresponding samples.
The fluorescence intensity of each well was detected using the Alarm blue method, and EC50 was calculated.
EC50 was calculated according to the following formula:
Y=Max+(Min−Max)/[1+(X/EC50)×Slope]
wherein Min, Max and Slope represent the minimum, maximum and slope respectively.
Regarding `O=C1CCC(N2Cc3c(NC(=O)CCNCCOCCOCCOCCNC(=O)c4ccc(Nc5ncc6c(n5)-c5ccc(Cl)cc5C(c5c(F)cccc5F)=NC6)cc4)cccc3C2=O)C(=O)N1` (stereo not shown) [UB-180728], the half-maximal effective concentration (EC50) lay in the range of 100 to 1000 nM.

Take `O=C1CCC(N2Cc3c(NC(=O)CCNCCn4cc(CNC(=O)[C@]5(Cc6cccc(Nc7nccs7)n6)CC[C@@H](Oc6cccc(Cl)c6F)CC5)nn4)cccc3C2=O)C(=O)N1` (stereo partly shown) [UB-180729]: the EC50 fell in the range of 100 to 1000 nM.

Turning to `O=C1CCC(N2Cc3c(NC(=O)CCNCCOCCOCCOCCNC(=O)[C@]4(Cc5cccc(Nc6nccs6)n5)CC[C@@H](Oc5cccc(Cl)c5F)CC4)cccc3C2=O)C(=O)N1` (stereo partly shown) [UB-180731], the EC50 is 100 to 1000 nM.

For `O=C1CCC(N2Cc3c(NC(=O)COCCNCCn4cc(CNC(=O)c5ccc(Nc6ncc7c(n6)-c6ccc(Cl)cc6C(c6c(F)cccc6F)=NC7)cc5)nn4)cccc3C2=O)C(=O)N1` (stereo not shown) [UB-180732], the concentration for a half-maximal effect (EC50) was in the range of 100 to 1000 nM.

As for `O=C1CCC(N2Cc3c(NC(=O)CNCCOCCN4CCC(NC(=O)c5ccc(Nc6ncc7c(n6)-c6ccc(Cl)cc6C(c6c(F)cccc6F)=NC7)cc5)CC4)cccc3C2=O)C(=O)N1` (stereo not shown) [UB-180735], the half-maximal effective concentration (EC50) was 100 to 1000 nM.

For `O=C1CCC(N2Cc3c(NC(=O)CNCCOCCN4CCC(NC(=O)[C@]5(Cc6cccc(Nc7nccs7)n6)CC[C@@H](Oc6cccc(Cl)c6F)CC5)CC4)cccc3C2=O)C(=O)N1` (stereo partly shown) [UB-180736], the concentration for a half-maximal effect (EC50) fell in the range of 100 to 1000 nM.

`O=C1CCC(N2Cc3c(NC(=O)COCCNCCN4CCC(NC(=O)c5ccc(Nc6ncc7c(n6)-c6ccc(Cl)cc6C(c6c(F)cccc6F)=NC7)cc5)CC4)cccc3C2=O)C(=O)N1` (stereo not shown) [UB-180740] returned a half-maximal effective concentration (EC50) of 100 to 1000 nM.

`O=C1CCC(N2Cc3c(NC(=O)COCCNCCN4CCC(NC(=O)[C@]5(Cc6cccc(Nc7nccs7)n6)CC[C@@H](Oc6cccc(Cl)c6F)CC5)CC4)cccc3C2=O)C(=O)N1` (stereo partly shown) [UB-180741] showed a half-maximal effective concentration (EC50) above 1000 nM.

`O=C1CCC(N2Cc3c(NC(=O)CNCCOCCn4cc(CNC(=O)[C@]5(Cc6cccc(Nc7nccs7)n6)CC[C@@H](Oc6cccc(Cl)c6F)CC5)nn4)cccc3C2=O)C(=O)N1` (stereo partly shown) [UB-180742] came in with an EC50 of 100 to 1000 nM.

Consider `O=C1CCC(N2Cc3c(NC(=O)CNCCOCCn4cc(CNC(=O)c5ccc(Nc6ncc7c(n6)-c6ccc(Cl)cc6C(c6c(F)cccc6F)=NC7)cc5)nn4)cccc3C2=O)C(=O)N1` (stereo not shown) [UB-180743], for which the EC50 was in the range of 100 to 1000 nM.

Molecule `O=C1CCC(N2Cc3c(NC(=O)COCCNCCn4cc(CNC(=O)[C@]5(Cc6cccc(Nc7nccs7)n6)CC[C@@H](Oc6cccc(Cl)c6F)CC5)nn4)cccc3C2=O)C(=O)N1` (stereo partly shown) [UB-180744] yielded an EC50 of 100 to 1000 nM.

For `CC[C@@H]1C(=O)N(C)c2cnc(Nc3ccc(C(=O)NC4CCN(CCOCCNCC(=O)Nc5cccc6c5CN(C5CCC(=O)NC5=O)C6=O)CC4)cc3OC)nc2N1Cc1ccc(C)s1` (stereo partly shown) [UB-180746], the EC50 was in the range of 10 to 100 nM.

As for `O=C1CCC(N2Cc3c(NC(=O)CCNCCn4ncc(CNC(=O)c5ccc(Nc6ncc7c(n6)-c6ccc(Cl)cc6C(c6c(F)cccc6F)=NC7)cc5)n4)cccc3C2=O)C(=O)N1` (stereo not shown) [UB-180761], the EC50 was above 1000 nM.

Molecule `CC[C@@H]1C(=O)N(C)c2cnc(Nc3ccc(C(=O)NCc4cn(CCNCCOCC(=O)Nc5cccc6c5CN(C5CCC(=O)NC5=O)C6=O)nn4)cc3OC)nc2N1Cc1cc(Cl)cs1` (stereo partly shown) [UB-180763] returned a concentration for a half-maximal effect (EC50) of 10 to 100 nM.

The molecule `CC[C@@H]1C(=O)N(C)c2cnc(Nc3ccc(C(=O)NCc4cn(CCNCCOCC(=O)Nc5cccc6c5CN(C5CCC(=O)NC5=O)C6=O)nn4)cc3OC)nc2N1Cc1ccc(C)s1` (stereo partly shown) [UB-180764] came in with an EC50 below 10 nM.

As for `CC[C@@H]1C(=O)N(C)c2cnc(Nc3ccc(C(=O)NCc4cn(CCNCCOCC(=O)Nc5cccc6c5CN(C5CCC(=O)NC5=O)C6=O)nn4)cc3OC)nc2N1Cc1ccc(C#N)s1` (stereo partly shown) [UB-180765], the concentration for a half-maximal effect (EC50) lay in the range of 10 to 100 nM.

In turn, `CC[C@@H]1C(=O)N(C)c2cnc(Nc3ccc(C(=O)NC4CCN(CCOCCNCC(=O)Nc5cccc6c5CN(C5CCC(=O)NC5=O)C6=O)CC4)cc3OC)nc2N1Cc1cc(Cl)cs1` (stereo partly shown) [UB-180767] showed a half-maximal effective concentration (EC50) of 10 to 100 nM.

Take `O=C1CCC(N2Cc3c(NC(=O)CCOCCNCCN4CCC(NC(=O)c5ccc(Nc6ncc7c(n6)-c6ccc(Cl)cc6C(c6c(F)cccc6F)=NC7)cc5)CC4)cccc3C2=O)C(=O)N1` (stereo not shown) [UB-180768]: the EC50 was 100 to 1000 nM.

For the molecule `O=C1CCC(N2Cc3c(NC(=O)CCOCCNCCN4CCC(NC(=O)[C@]5(Cc6cccc(Nc7nccs7)n6)CC[C@@H](Oc6cccc(Cl)c6F)CC5)CC4)cccc3C2=O)C(=O)N1` (stereo partly shown) [UB-180769], the concentration giving a half-maximal response (EC50) lay in the range of 100 to 1000 nM.

`O=C1CCC(N2Cc3c(NC(=O)CCCCCNCCOCCOCCOCCNC(=O)c4ccc(Nc5ncc6c(n5)-c5ccc(Cl)cc5C(c5c(F)cccc5F)=NC6)cc4)cccc3C2=O)C(=O)N1` (stereo not shown) [UB-180770] registered a half-maximal effective concentration (EC50) of 100 to 1000 nM.

In turn, `O=C1CCC(N2Cc3c(NC(=O)CCCCCNCCOCCOCCOCCNC(=O)[C@]4(Cc5cccc(Nc6nccs6)n5)CC[C@@H](Oc5cccc(Cl)c5F)CC4)cccc3C2=O)C(=O)N1` (stereo partly shown) [UB-180771] showed a 50% effective concentration (EC50) of 100 to 1000 nM.

As for `O=C1CCC(N2Cc3c(NC(=O)CCCCNCCOCCOCCOCCNC(=O)c4ccc(Nc5ncc6c(n5)-c5ccc(Cl)cc5C(c5c(F)cccc5F)=NC6)cc4)cccc3C2=O)C(=O)N1` (stereo not shown) [UB-180772], the concentration for a half-maximal effect (EC50) is above 1000 nM.

`O=C1CCC(N2Cc3c(NC(=O)CCCNCCOCCOCCOCCNC(=O)c4ccc(Nc5ncc6c(n5)-c5ccc(Cl)cc5C(c5c(F)cccc5F)=NC6)cc4)cccc3C2=O)C(=O)N1` (stereo not shown) [UB-180773] had a 50% effective concentration (EC50) of 100 to 1000 nM.

Molecule `O=C1CCC(N2Cc3c(NC(=O)CCNCCn4ncc(CNC(=O)[C@]5(Cc6cccc(Nc7nccs7)n6)CC[C@@H](Oc6cccc(Cl)c6F)CC5)n4)cccc3C2=O)C(=O)N1` (stereo partly shown) [UB-180774] came in with an EC50 of 100 to 1000 nM.

`O=C1CCC(N2Cc3c(NC(=O)CCNCCOCCN4CCC(NC(=O)c5ccc(Nc6ncc7c(n6)-c6ccc(Cl)cc6C(c6c(F)cccc6F)=NC7)cc5)CC4)cccc3C2=O)C(=O)N1` (stereo not shown) [UB-180775] returned an EC50 of 100 to 1000 nM.

In turn, `O=C1CCC(N2Cc3c(NC(=O)CCNCCOCCN4CCC(NC(=O)[C@]5(Cc6cccc(Nc7nccs7)n6)CC[C@@H](Oc6cccc(Cl)c6F)CC5)CC4)cccc3C2=O)C(=O)N1` (stereo partly shown) [UB-180776] gave an EC50 of 100 to 1000 nM.

Take `O=C1CCC(N2Cc3c(NC(=O)CCNCCOCCOCCNC(=O)c4ccc(Nc5ncc6c(n5)-c5ccc(Cl)cc5C(c5c(F)cccc5F)=NC6)cc4)cccc3C2=O)C(=O)N1` (stereo not shown) [UB-180777]: the EC50 is 100 to 1000 nM.

Take `O=C1CCC(N2Cc3c(NC(=O)CCCCNCCOCCOCCOCCNC(=O)[C@]4(Cc5cccc(Nc6nccs6)n5)CC[C@@H](Oc5cccc(Cl)c5F)CC4)cccc3C2=O)C(=O)N1` (stereo partly shown) [UB-180778]: the EC50 was above 1000 nM.

As for `O=C1CCC(N2Cc3c(NC(=O)CCCNCCOCCOCCOCCNC(=O)[C@]4(Cc5cccc(Nc6nccs6)n5)CC[C@@H](Oc5cccc(Cl)c5F)CC4)cccc3C2=O)C(=O)N1` (stereo partly shown) [UB-180779], the concentration giving a half-maximal response (EC50) is above 1000 nM.

In the case of `Cc1ncsc1-c1ccc(CNC(=O)[C@@H]2C[C@@H](O)CN2C(=O)[C@@H](NC(=O)CCNCCOCCOCCOCCNC(=O)c2ccc(Nc3ncc4c(n3)-c3ccc(Cl)cc3C(c3c(F)cccc3F)=NC4)cc2)C(C)(C)C)cc1` [UB-180780], the EC50 was above 1000 nM.

`Cc1ncsc1-c1ccc(CNC(=O)[C@@H]2C[C@@H](O)CN2C(=O)[C@@H](NC(=O)CNCCOCCOCCOCCNC(=O)c2ccc(Nc3ncc4c(n3)-c3ccc(Cl)cc3C(c3c(F)cccc3F)=NC4)cc2)C(C)(C)C)cc1` [UB-180781] showed an EC50 of 100 to 1000 nM.

In the case of `Cc1ncsc1-c1ccc(CNC(=O)[C@@H]2C[C@@H](O)CN2C(=O)[C@@H](NC(=O)CCNCCOCCOCCOCCNC(=O)[C@]2(Cc3cccc(Nc4nccs4)n3)CC[C@@H](Oc3cccc(Cl)c3F)CC2)C(C)(C)C)cc1` [UB-180782], the EC50 was above 1000 nM.

`Cc1ncsc1-c1ccc(CNC(=O)[C@@H]2C[C@@H](O)CN2C(=O)[C@@H](NC(=O)CNCCOCCOCCOCCNC(=O)[C@]2(Cc3cccc(Nc4nccs4)n3)CC[C@@H](Oc3cccc(Cl)c3F)CC2)C(C)(C)C)cc1` [UB-180783] gave an EC50 above 1000 nM.

For the molecule `Cc1ncsc1-c1ccc(CNC(=O)[C@@H]2C[C@@H](O)CN2C(=O)[C@@H](NC(=O)CCNCCOCCn2cc(CNC(=O)c3ccc(Nc4ncc5c(n4)-c4ccc(Cl)cc4C(c4c(F)cccc4F)=NC5)cc3)nn2)C(C)(C)C)cc1` [UB-180784], the EC50 is above 1000 nM.

`Cc1ncsc1-c1ccc(CNC(=O)[C@@H]2C[C@@H](O)CN2C(=O)[C@@H](NC(=O)CCNCCOCCn2cc(CNC(=O)[C@]3(Cc4cccc(Nc5nccs5)n4)CC[C@@H](Oc4cccc(Cl)c4F)CC3)nn2)C(C)(C)C)cc1` [UB-180785]: the EC50 is above 1000 nM.

The experiment is the same for the next values; noted with them: MV4;11 cells.
Take `O=C1CCC(N2Cc3c(NC(=O)CCNCCOCCn4cc(CNC(=O)c5ccc(Nc6ncc7c(n6)-c6ccc(Cl)cc6C(c6c(F)cccc6F)=NC7)cc5)nn4)cccc3C2=O)C(=O)N1` (stereo not shown) [UB-180738]: the half-maximal effective concentration (EC50) was 100 to 1000 nM.

Consider `O=C1CCC(N2Cc3c(NC(=O)CCNCCOCCn4cc(CNC(=O)[C@]5(Cc6cccc(Nc7nccs7)n6)CC[C@@H](Oc6cccc(Cl)c6F)CC5)nn4)cccc3C2=O)C(=O)N1` (stereo partly shown) [UB-180739], for which the EC50 is above 1000 nM.

The molecule `CC[C@@H]1C(=O)N(C)c2cnc(Nc3ccc(C(=O)NC4CCN(CCOCCNCC(=O)Nc5cccc6c5CN(C5CCC(=O)NC5=O)C6=O)CC4)cc3OC)nc2N1Cc1ccc(C)s1` (stereo partly shown) [UB-180747] returned an EC50 of 10 to 100 nM.

`O=C1CCC(N2Cc3c(NC(=O)CCNCCOCCn4cc(CNC(=O)c5ccc(Nc6ncc7c(n6)-c6ccc(Cl)cc6C(c6c(F)cccc6F)=NC7)cc5)nn4)cccc3C2=O)C(=O)N1` (stereo not shown) [UB-180748] displayed an EC50 above 1000 nM.

On to `O=C1CCC(N2Cc3c(NC(=O)CCNCCOCCn4cc(CNC(=O)[C@]5(Cc6cccc(Nc7nccs7)n6)CC[C@@H](Oc6cccc(Cl)c6F)CC5)nn4)cccc3C2=O)C(=O)N1` (stereo partly shown) [UB-180749], for which the half-maximal effective concentration (EC50) lay within 100 to 1000 nM.
